# Results taken from ChEMBL document CHEMBL4265887 (Bioorg Med Chem Lett, 2018).
# pIC50: −log10 of the molar value. The source made the active and inactive calls. No cut-off for these calls is given here.
# Key:
# HCT-116 [1] = test: Synergistic cytotoxicity against human HCT116 cells assessed as reduction in cell viability by measuring combination index at 1:1 compound to crizotinib ratio after 48 hrs by MTT assay; assay type: functional
# [2] = target: Hepatocyte growth factor receptor (Homo sapiens) (UniProt P08581); test: Inhibition of c-MET (unknown origin) at 10 uM
# [3] = target: Receptor-type tyrosine-protein kinase FLT3 (Homo sapiens) (UniProt P36888); test: Inhibition of FLT3 (unknown origin) at 10 uM
# HCT-116 [4] = test: Synergistic cytotoxicity against human HCT116 cells assessed as reduction in cell viability by measuring combination index at 1:1 compound to dasatinib ratio after 48 hrs by MTT assay; assay type: functional
# [5] = target: Protein kinase C alpha type (Homo sapiens) (UniProt P17252); test: Inhibition of PKCalpha (unknown origin) at 10 uM
# [6] = target: Rho-associated protein kinase 2 (Homo sapiens) (UniProt O75116); test: Inhibition of ROCK2 (unknown origin) at 10 uM
# HT-29 [7] = test: Synergistic cytotoxicity against human HT-29 cells assessed as reduction in cell viability by measuring combination index at 1:1 compound to GSK2126458 ratio after 48 hrs by MTT assay; assay type: functional
# [8] = target: Mitogen-activated protein kinase 8 (Homo sapiens) (UniProt P45983); test: Inhibition of JNK1 (unknown origin) at 10 uM
# HCT-116 [9] = test: Cytotoxicity against human HCT116 cells assessed as reduction in cell viability after 48 hrs by MTT assay; assay type: functional, cell-based; details: HCT-116, 48 h
# HCT-116 [10] = test: Synergistic cytotoxicity against human HCT116 cells assessed as reduction in cell viability by measuring combination index at 1:1 compound to lonafarnib ratio after 48 hrs by MTT assay; assay type: functional
# [11] = target: Proto-oncogene tyrosine-protein kinase receptor Ret (Homo sapiens) (UniProt P07949); test: Inhibition of RET (unknown origin) at 10 uM
# [12] = target: Mast/stem cell growth factor receptor Kit (Homo sapiens) (UniProt P10721); test: Inhibition of c-KIT (unknown origin) at 10 uM
# [13] = target: High affinity nerve growth factor receptor (Homo sapiens) (UniProt P04629); test: Inhibition of TrkA (unknown origin) at 10 uM
# [14] = target: Vascular endothelial growth factor receptor 2 (Homo sapiens) (UniProt P35968); test: Inhibition of VEGFR2 (unknown origin) at 10 uM
# HT-29 [15] = test: Synergistic cytotoxicity against human HT-29 cells assessed as reduction in cell viability by measuring combination index at 1:1 compound to lonafarnib ratio after 48 hrs by MTT assay; assay type: functional
# [16] = target: Tyrosine-protein kinase JAK3 (Homo sapiens) (UniProt P52333); test: Inhibition of JAK3 (unknown origin) at 10 uM
# [17] = target: RAC-alpha serine/threonine-protein kinase (Homo sapiens) (UniProt P31749); test: Inhibition of AKT1 (unknown origin) at 10 uM
# HCT-116 [18] = test: Synergistic cytotoxicity against human HCT116 cells assessed as reduction in cell viability by measuring combination index at 1:1 compound to erlotinib ratio after 48 hrs by MTT assay; assay type: functional
# HCT-116 [19] = test: Inhibition of cytokinesis in human HCT116 cells at 100 nM after 24 hrs by propidium iodide/RNase staining-based flow cytometric analysis; assay type: functional, cell-based
# HCT-116 [20] = test: Inhibition of cytokinesis in human HCT116 cells at 1 uM after 24 hrs by propidium iodide/RNase staining-based flow cytometric analysis; assay type: functional, cell-based
# [21] = target: Mitogen-activated protein kinase 3 (Homo sapiens) (UniProt P27361); test: Inhibition of ERK1 (unknown origin) at 10 uM
# [22] = target: Serine/threonine-protein kinase PAK 4 (Homo sapiens) (UniProt O96013); test: Inhibition of PAK4 (unknown origin) at 10 uM
# [23] = target: CDK2/Cyclin A2 (Homo sapiens) (UniProt P24941+P20248); test: Inhibition of CDK2/cyclin A (unknown origin) at 10 uM; assay type: protein-complex assay
# HCT-116 [24] = test: Synergistic cytotoxicity against human HCT116 cells assessed as reduction in cell viability by measuring combination index at 1:1 compound to GSK2126458 ratio after 48 hrs by MTT assay; assay type: functional
# HT-29 [25] = test: Synergistic cytotoxicity against human HT-29 cells assessed as reduction in cell viability by measuring combination index at 1:1 compound to erlotinib ratio after 48 hrs by MTT assay; assay type: functional
# [26] = target: Interleukin-1 receptor-associated kinase 4 (Homo sapiens) (UniProt Q9NWZ3); test: Inhibition of IRAK4 (unknown origin) at 10 uM
# [27] = target: Proto-oncogene tyrosine-protein kinase Src (Homo sapiens) (UniProt P12931); test: Inhibition of c-Src (unknown origin) at 10 uM
# [28] = target: Angiopoietin-1 receptor (Homo sapiens) (UniProt Q02763); test: Inhibition of TIE2 (unknown origin) at 10 uM
# HCT-15 = test: Cytotoxicity against human HCT15 cells assessed as reduction in cell viability after 48 hrs by MTT assay; assay type: functional, cell-based; details: HCT-15, 48 h
# [29] = target: Receptor tyrosine-protein kinase erbB-2 (Homo sapiens) (UniProt P04626); test: Inhibition of ErbB2 (unknown origin) at 10 uM
# [30] = Solubility of the compound in phosphate buffer of pH 7.4 after 24 hrs by RP-HPLC analysis; assay type: physicochemical; details: phosphate buffer, pH 7.4
# HT-29 [31] = test: Synergistic cytotoxicity against human HT-29 cells assessed as reduction in cell viability by measuring combination index at 1:1 compound to crizotinib ratio after 48 hrs by MTT assay; assay type: functional
# [32] = target: Cyclin-dependent kinase 4/cyclin D1 (Homo sapiens) (UniProt P11802+P24385); test: Inhibition of CDK4/Cyclin D1 (unknown origin) at 10 uM; assay type: protein-complex assay
# [33] = target: Death-associated protein kinase 3 (Homo sapiens) (UniProt O43293); test: Inhibition of ZIPK (unknown origin) at 10 uM
# [34] = target: Tyrosine-protein kinase SYK (Homo sapiens) (UniProt P43405); test: Inhibition of SYK (unknown origin) at 10 uM
# HCT-116 [35] = test: Synergistic cytotoxicity against human HCT116 cells assessed as reduction in cell viability by measuring combination index at 1:1 compound to trichostatin A ratio after 48 hrs by MTT assay; assay type: functional
# [36] = target: Platelet-derived growth factor receptor beta (Homo sapiens) (UniProt P09619); test: Inhibition of PDGFRbeta (unknown origin) at 10 uM
# [37] = target: Serine/threonine-protein kinase PAK 1 (Homo sapiens) (UniProt Q13153); test: Inhibition of PAK1 (unknown origin) at 10 uM
# [38] = target: Serine/threonine-protein kinase pim-1 (Homo sapiens) (UniProt P11309); test: Inhibition of PIM1 (unknown origin) at 10 uM
# HCT-116 [39] = test: Induction of apoptosis in human HCT116 cells at 100 nM after 72 hrs by Annexin V-FITC staining-based flow cytometric analysis; assay type: functional, cell-based
# Aurora kinase B = Aurora kinase B (Homo sapiens, UniProt Q96GD4); test: Inhibition of recombinant Aurora B (unknown origin) using TAMRA-PKAtide as substrate after 1 hr by fluorescence polarization assay
# Receptor tyrosine-protein kinase erbB-2 (Homo sapiens), sequence (P04626 whole entry): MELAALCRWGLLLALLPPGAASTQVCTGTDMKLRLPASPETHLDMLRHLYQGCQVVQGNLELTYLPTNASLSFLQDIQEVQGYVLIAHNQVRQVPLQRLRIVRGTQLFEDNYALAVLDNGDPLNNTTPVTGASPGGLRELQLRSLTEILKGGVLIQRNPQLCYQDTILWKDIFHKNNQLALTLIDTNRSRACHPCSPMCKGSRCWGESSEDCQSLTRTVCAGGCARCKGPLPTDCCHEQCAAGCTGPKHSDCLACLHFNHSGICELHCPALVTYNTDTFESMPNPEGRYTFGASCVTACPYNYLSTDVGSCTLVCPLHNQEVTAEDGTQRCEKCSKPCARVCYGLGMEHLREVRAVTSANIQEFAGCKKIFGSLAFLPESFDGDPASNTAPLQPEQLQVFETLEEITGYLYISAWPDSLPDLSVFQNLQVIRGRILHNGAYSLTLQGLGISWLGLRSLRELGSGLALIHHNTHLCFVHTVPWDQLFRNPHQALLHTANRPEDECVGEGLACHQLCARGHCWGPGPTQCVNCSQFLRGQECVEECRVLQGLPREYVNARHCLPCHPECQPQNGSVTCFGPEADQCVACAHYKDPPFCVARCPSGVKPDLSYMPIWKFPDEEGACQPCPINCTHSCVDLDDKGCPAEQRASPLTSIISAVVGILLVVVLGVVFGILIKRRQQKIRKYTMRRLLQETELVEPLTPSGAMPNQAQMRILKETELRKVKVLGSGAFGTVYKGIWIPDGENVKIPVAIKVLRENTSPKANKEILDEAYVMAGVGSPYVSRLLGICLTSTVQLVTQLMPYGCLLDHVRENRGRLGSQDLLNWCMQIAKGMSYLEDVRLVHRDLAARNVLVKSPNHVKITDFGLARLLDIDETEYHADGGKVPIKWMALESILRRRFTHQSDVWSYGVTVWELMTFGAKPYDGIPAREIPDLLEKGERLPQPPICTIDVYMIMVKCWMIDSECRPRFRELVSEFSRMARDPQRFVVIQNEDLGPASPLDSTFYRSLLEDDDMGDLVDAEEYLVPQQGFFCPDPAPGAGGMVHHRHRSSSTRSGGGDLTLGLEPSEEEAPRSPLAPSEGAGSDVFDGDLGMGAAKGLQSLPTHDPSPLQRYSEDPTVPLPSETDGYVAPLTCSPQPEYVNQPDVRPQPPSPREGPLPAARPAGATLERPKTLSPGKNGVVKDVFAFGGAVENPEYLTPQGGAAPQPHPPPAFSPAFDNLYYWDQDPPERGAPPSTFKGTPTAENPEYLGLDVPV
# Rho-associated protein kinase 2 (Homo sapiens), sequence (O75116 whole entry, looked up): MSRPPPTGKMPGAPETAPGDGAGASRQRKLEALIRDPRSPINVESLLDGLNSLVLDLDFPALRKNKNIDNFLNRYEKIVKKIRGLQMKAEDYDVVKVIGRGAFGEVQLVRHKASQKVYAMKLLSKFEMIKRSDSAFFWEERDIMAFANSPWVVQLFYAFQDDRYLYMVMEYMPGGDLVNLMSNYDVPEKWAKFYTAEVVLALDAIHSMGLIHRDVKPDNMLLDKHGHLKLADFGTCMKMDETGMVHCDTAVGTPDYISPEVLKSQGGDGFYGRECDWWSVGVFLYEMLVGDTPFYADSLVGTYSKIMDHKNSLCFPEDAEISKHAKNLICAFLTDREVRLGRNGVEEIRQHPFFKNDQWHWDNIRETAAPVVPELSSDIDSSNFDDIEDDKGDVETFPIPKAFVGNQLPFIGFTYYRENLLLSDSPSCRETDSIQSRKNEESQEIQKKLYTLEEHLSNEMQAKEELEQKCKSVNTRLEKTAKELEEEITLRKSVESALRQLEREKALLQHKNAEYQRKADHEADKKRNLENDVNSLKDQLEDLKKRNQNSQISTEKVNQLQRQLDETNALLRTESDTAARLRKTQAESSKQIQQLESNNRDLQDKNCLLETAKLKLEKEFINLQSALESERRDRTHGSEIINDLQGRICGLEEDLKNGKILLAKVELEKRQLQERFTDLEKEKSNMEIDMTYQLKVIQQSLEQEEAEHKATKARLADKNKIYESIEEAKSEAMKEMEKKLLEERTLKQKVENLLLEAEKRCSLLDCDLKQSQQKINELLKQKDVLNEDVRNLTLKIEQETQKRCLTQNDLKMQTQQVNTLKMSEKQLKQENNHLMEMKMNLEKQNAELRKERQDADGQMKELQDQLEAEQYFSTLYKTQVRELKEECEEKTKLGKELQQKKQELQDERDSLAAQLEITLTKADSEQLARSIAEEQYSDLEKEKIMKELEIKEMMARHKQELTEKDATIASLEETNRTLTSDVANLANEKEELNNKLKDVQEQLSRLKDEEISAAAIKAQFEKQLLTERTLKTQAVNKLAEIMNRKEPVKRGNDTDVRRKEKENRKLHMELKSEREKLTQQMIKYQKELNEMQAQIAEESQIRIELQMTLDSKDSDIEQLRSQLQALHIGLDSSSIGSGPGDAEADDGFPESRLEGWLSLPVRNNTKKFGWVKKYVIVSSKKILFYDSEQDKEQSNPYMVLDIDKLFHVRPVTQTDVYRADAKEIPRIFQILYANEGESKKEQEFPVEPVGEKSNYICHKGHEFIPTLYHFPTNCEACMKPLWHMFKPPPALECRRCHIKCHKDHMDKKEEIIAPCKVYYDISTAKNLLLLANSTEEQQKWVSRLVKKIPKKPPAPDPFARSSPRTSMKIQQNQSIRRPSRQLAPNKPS
# Serine/threonine-protein kinase PAK 1 (Homo sapiens), sequence (Q13153 whole entry): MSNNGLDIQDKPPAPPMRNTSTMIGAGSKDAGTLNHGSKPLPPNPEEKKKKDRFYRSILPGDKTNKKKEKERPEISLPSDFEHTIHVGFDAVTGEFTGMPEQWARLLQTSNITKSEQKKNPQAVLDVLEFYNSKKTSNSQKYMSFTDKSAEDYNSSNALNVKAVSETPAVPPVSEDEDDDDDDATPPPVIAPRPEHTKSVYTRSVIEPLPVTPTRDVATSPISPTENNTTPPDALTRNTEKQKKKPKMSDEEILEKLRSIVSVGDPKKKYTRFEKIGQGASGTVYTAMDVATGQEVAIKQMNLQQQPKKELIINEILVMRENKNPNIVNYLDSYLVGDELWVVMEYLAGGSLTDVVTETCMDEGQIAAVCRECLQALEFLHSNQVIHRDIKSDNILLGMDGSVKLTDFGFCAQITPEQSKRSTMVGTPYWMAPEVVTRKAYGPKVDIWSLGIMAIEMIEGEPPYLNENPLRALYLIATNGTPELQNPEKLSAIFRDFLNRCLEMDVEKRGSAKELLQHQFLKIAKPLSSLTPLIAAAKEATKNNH
# Hepatocyte growth factor receptor (Homo sapiens), sequence (P08581 whole entry): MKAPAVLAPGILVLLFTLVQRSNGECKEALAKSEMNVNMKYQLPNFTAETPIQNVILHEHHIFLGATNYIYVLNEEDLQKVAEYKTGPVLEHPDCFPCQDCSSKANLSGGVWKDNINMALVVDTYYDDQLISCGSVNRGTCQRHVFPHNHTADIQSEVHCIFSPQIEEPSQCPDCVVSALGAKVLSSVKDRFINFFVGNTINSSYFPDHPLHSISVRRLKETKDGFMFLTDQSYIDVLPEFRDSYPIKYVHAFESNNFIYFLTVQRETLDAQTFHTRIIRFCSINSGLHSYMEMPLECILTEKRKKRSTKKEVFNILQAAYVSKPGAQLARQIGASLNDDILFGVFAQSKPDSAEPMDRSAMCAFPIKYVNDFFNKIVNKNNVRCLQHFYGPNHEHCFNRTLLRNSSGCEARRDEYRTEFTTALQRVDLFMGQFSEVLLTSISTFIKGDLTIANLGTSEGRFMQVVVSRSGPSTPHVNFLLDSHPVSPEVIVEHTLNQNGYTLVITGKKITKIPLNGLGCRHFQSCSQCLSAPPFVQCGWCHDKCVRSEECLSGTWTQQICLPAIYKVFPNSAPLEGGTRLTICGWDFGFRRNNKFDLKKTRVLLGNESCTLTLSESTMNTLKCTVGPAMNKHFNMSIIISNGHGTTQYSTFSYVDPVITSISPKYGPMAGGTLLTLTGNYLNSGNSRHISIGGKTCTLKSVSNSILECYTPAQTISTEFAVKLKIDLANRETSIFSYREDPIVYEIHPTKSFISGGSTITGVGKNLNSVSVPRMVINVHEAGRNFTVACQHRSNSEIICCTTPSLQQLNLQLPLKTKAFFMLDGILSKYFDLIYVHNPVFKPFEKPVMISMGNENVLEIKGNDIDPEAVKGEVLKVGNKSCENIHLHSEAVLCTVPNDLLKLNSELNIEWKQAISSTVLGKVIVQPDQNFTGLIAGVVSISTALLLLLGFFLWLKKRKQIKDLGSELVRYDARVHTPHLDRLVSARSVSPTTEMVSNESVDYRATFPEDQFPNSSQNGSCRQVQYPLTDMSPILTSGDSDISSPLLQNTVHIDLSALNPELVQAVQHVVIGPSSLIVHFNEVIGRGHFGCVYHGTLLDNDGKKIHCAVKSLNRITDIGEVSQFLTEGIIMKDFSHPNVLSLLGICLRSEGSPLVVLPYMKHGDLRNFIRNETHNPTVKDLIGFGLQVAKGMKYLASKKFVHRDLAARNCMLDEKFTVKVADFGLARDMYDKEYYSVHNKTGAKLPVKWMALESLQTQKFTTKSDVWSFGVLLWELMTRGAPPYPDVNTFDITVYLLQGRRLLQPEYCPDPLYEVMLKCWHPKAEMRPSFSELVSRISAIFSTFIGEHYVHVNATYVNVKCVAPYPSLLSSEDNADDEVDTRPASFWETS
# Death-associated protein kinase 3 (Homo sapiens), sequence (O43293 whole entry, looked up): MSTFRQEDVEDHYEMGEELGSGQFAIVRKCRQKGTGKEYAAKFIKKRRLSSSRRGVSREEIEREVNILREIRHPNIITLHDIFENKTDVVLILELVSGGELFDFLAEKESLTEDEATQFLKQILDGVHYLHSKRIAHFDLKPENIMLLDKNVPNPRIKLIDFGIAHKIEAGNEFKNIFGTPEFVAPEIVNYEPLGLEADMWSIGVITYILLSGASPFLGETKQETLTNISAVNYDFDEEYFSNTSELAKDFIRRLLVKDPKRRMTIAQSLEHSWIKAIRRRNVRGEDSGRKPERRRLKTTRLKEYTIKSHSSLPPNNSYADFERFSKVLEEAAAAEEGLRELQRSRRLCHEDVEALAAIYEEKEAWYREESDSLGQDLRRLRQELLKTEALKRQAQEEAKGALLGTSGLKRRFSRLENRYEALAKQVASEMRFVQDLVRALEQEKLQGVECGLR
smiles,measurement,setting,value
CNC(=O)Nc1sc2c(C(C)C)cc(NS(=O)(=O)c3cccs3)cc2c1C(N)=O,CI,HCT-116 [1],0.136
same,inhibition,[2],47.4%
same,inhibition,[3],56.8%
same,CI,HCT-116 [4],1
same,inhibition,[5],21.4%
same,inhibition,[6],11.8%
same,CI,HT-29 [7],1.044
same,inhibition,[8],12.2%
same,pIC50,HCT-116 [9],6.54
same,CI,HCT-116 [10],0.755
same,inhibition,[11],98.4%
same,inhibition,[12],71.6%
same,inhibition,[13],95.3%
same,inhibition,[14],109%
same,CI,HT-29 [15],0.198
same,inhibition,[16],99.6%
same,inhibition,[17],13.6%
same,CI,HCT-116 [18],0.25
same,Cytokinesis inhibition (active/inactive call),HCT-116 [19],Active
same,Cytokinesis inhibition (active/inactive call),HCT-116 [20],Active
same,inhibition,[21],12.4%
same,inhibition,[22],95.7%
same,inhibition,[23],33.9%
same,CI,HCT-116 [24],1.042
same,CI,HT-29 [25],0.075
same,inhibition,[26],16%
same,inhibition,[27],105%
same,inhibition,[28],35.7%
same,pIC50,HCT-15,6.21
same,inhibition,[29],35.9%
same,solubility at 24 h,[30],1.9 µM
same,CI,HT-29 [31],0.102
same,inhibition,[32],44.1%
same,inhibition,[33],12.9%
same,inhibition,[34],16.6%
same,CI,HCT-116 [35],0.195
same,inhibition,[36],88%
same,inhibition,[37],26.7%
same,inhibition,[38],35.7%
same,Activity,HCT-116 [39],Active
same,pIC50,Aurora kinase B,7.54
